Reference: PubChem BioAssay (NCI)
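Briefly, cells in 96-well plates were exposed to five compound concentrations for 48 h, and endpoints were estimated by linear interpolation. Definition used: TGI = concentration required for complete inhibition of growth.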

Tests used:
Experiment in all cases: NCI anticancer screen, dose series, 48 h
MDA-N = test system: MDA-N
SW-620 colon = test system: SW-620 colon
RXF 393 renal = test system: RXF 393 renal
MOLT-4 leukemia = test system: MOLT-4 leukemia
NCI-H460 lung = test system: NCI-H460 lung
NCI-H522 lung = test system: NCI-H522 lung
A549 NSCLC = test system: A549 NSCLC
HS 578T breast = test system: HS 578T breast
SK-OV-3 ovarian = test system: SK-OV-3 ovarian
SF-539 CNS = test system: SF-539 CNS
COLO 205 colon = test system: COLO 205 colon
NCI/ADR-RES ovarian = test system: NCI/ADR-RES ovarian
EKVX NSCLC = test system: EKVX NSCLC
K-562 leukemia = test system: K-562 leukemia
PC-3 prostate = test system: PC-3 prostate
SNB-75 CNS = test system: SNB-75 CNS
UO-31 renal = test system: UO-31 renal
SN12C renal = test system: SN12C renal
SF-268 CNS = test system: SF-268 CNS
DU-145 prostate = test system: DU-145 prostate
UACC-257 melanoma = test system: UACC-257 melanoma
HOP-92 NSCLC = test system: HOP-92 NSCLC
T-47D breast = test system: T-47D breast
HL-60(TB) leukemia = test system: HL-60(TB) leukemia
TK-10 renal = test system: TK-10 renal
MDA-MB-435 = test system: MDA-MB-435
A498 renal = test system: A498 renal
OVCAR-5 ovarian = test system: OVCAR-5 ovarian
SF-295 CNS = test system: SF-295 CNS
HCC-2998 colon = test system: HCC-2998 colon
MDA-MB-231 breast = test system: MDA-MB-231 breast
HOP-62 NSCLC = test system: HOP-62 NSCLC
KM12 colon = test system: KM12 colon
SK-MEL-28 melanoma = test system: SK-MEL-28 melanoma
HT29 colon = test system: HT29 colon
IGROV1 ovarian = test system: IGROV1 ovarian
OVCAR-8 ovarian = test system: OVCAR-8 ovarian
RPMI-8226 leukemia = test system: RPMI-8226 leukemia
UACC-62 melanoma = test system: UACC-62 melanoma
786-0 renal = test system: 786-0 renal
U251 CNS = test system: U251 CNS
OVCAR-3 ovarian = test system: OVCAR-3 ovarian
M14 melanoma = test system: M14 melanoma
CCRF-CEM leukemia = test system: CCRF-CEM leukemia
NCI-H23 lung = test system: NCI-H23 lung
CAKI-1 renal = test system: CAKI-1 renal
MCF7 breast = test system: MCF7 breast
HCT-116 colon = test system: HCT-116 colon
OVCAR-4 ovarian = test system: OVCAR-4 ovarian
HCT-15 colon = test system: HCT-15 colon
SK-MEL-5 melanoma = test system: SK-MEL-5 melanoma
ACHN renal = test system: ACHN renal
LOX IMVI melanoma = test system: LOX IMVI melanoma
SR leukemia = test system: SR leukemia
SNB-19 CNS = test system: SNB-19 CNS
SK-MEL-2 melanoma = test system: SK-MEL-2 melanoma
NCI-H226 lung = test system: NCI-H226 lung

O=CCOCc1cc2c(cc1Br)OCO2
TGI (MDA-N): > 100 µM
TGI (SW-620 colon): 50.3 µM
TGI (RXF 393 renal): > 100 µM
TGI (MOLT-4 leukemia): > 100 µM
TGI (NCI-H460 lung): > 100 µM
TGI (NCI-H522 lung): 33.3 µM
TGI (A549 NSCLC): > 100 µM
TGI (HS 578T breast): 44.7 µM
TGI (SK-OV-3 ovarian): > 100 µM
TGI (SF-539 CNS): 50.2 µM
TGI (COLO 205 colon): > 100 µM
TGI (NCI/ADR-RES ovarian): 40.4 µM
TGI (EKVX NSCLC): > 100 µM
TGI (K-562 leukemia): > 100 µM
TGI (PC-3 prostate): 59.6 µM
TGI (SNB-75 CNS): > 100 µM
TGI (UO-31 renal): 42.9 µM
TGI (SN12C renal): > 100 µM
TGI (SF-268 CNS): 47.8 µM
TGI (DU-145 prostate): > 100 µM
TGI (UACC-257 melanoma): > 100 µM
TGI (HOP-92 NSCLC): > 100 µM
TGI (T-47D breast): 61.6 µM
TGI (HL-60(TB) leukemia): 48.8 µM
TGI (TK-10 renal): > 100 µM
TGI (MDA-MB-435): > 100 µM
TGI (A498 renal): > 100 µM
TGI (OVCAR-5 ovarian): > 100 µM
TGI (SF-295 CNS): > 100 µM
TGI (HCC-2998 colon): > 100 µM
TGI (MDA-MB-231 breast): 44.4 µM
TGI (HOP-62 NSCLC): > 100 µM
TGI (KM12 colon): > 100 µM
TGI (SK-MEL-28 melanoma): > 100 µM
TGI (HT29 colon): 38.6 µM
TGI (IGROV1 ovarian): > 100 µM
TGI (OVCAR-8 ovarian): 52.5 µM
TGI (RPMI-8226 leukemia): > 100 µM
TGI (UACC-62 melanoma): > 100 µM
TGI (786-0 renal): 36.7 µM
TGI (U251 CNS): 90.5 µM
TGI (OVCAR-3 ovarian): 35.7 µM
TGI (M14 melanoma): 46.7 µM
TGI (CCRF-CEM leukemia): 47.7 µM
TGI (NCI-H23 lung): 28.7 µM
TGI (CAKI-1 renal): 42.7 µM
TGI (MCF7 breast): 42.9 µM
TGI (HCT-116 colon): 45 µM
TGI (OVCAR-4 ovarian): 45.8 µM
TGI (HCT-15 colon): 46.1 µM
TGI (SK-MEL-5 melanoma): 36.1 µM
TGI (ACHN renal): 55.1 µM
TGI (LOX IMVI melanoma): 47.1 µM
TGI (SR leukemia): 68.1 µM

CNc1cc(N)ccc1C(=O)N1CCC[C@H]1CO
TGI (MDA-N): > 100 µM
TGI (SW-620 colon): > 100 µM
TGI (MOLT-4 leukemia): > 100 µM
TGI (NCI-H460 lung): > 100 µM
TGI (NCI-H522 lung): > 100 µM
TGI (A549 NSCLC): > 100 µM
TGI (HS 578T breast): > 100 µM
TGI (SK-OV-3 ovarian): > 100 µM
TGI (SF-539 CNS): > 100 µM
TGI (NCI/ADR-RES ovarian): > 100 µM
TGI (EKVX NSCLC): > 100 µM
TGI (K-562 leukemia): > 100 µM
TGI (PC-3 prostate): > 100 µM
TGI (SNB-75 CNS): > 100 µM
TGI (UO-31 renal): > 100 µM
TGI (SN12C renal): > 100 µM
TGI (SF-268 CNS): > 100 µM
TGI (DU-145 prostate): > 100 µM
TGI (UACC-257 melanoma): > 100 µM
TGI (HOP-92 NSCLC): > 100 µM
TGI (T-47D breast): > 100 µM
TGI (TK-10 renal): > 100 µM
TGI (MDA-MB-435): > 100 µM
TGI (A498 renal): > 100 µM
TGI (OVCAR-5 ovarian): > 100 µM
TGI (SF-295 CNS): > 100 µM
TGI (MDA-MB-231 breast): > 100 µM
TGI (HOP-62 NSCLC): > 100 µM
TGI (SNB-19 CNS): > 100 µM
TGI (KM12 colon): > 100 µM
TGI (SK-MEL-28 melanoma): > 100 µM
TGI (HT29 colon): > 100 µM
TGI (IGROV1 ovarian): > 100 µM
TGI (OVCAR-8 ovarian): > 100 µM
TGI (RPMI-8226 leukemia): > 100 µM
TGI (UACC-62 melanoma): > 100 µM
TGI (786-0 renal): > 100 µM
TGI (U251 CNS): > 100 µM
TGI (OVCAR-3 ovarian): > 100 µM
TGI (M14 melanoma): > 100 µM
TGI (MCF7 breast): > 100 µM
TGI (HCT-116 colon): > 100 µM
TGI (SK-MEL-2 melanoma): > 100 µM
TGI (HCT-15 colon): > 100 µM
TGI (NCI-H226 lung): > 100 µM
TGI (ACHN renal): > 100 µM
TGI (LOX IMVI melanoma): > 100 µM
TGI (SR leukemia): > 100 µM
